Key:
Format in all cases: cell-based
Miro1 [1] = assay: Miro1 fibroblast assay (CCCP challenge, Miro1 Western blot); conditions: skin fibroblasts from human Parkinson's disease patients, CCCP 40 μM 24 hr; read-out: Fibroblast IC50 (nM), Miro1 reduction
Experimental: Fibroblast Challenge and Miro1 Western blot: Skin fibroblasts were obtained from human Parkinson's disease (PD) patients. CCCP was applied at 40 μM for 24 hr to fibroblasts before cells were lysed in RIPA lysis buffer with 0.25 mM PMSF and protease inhibitors. Lysates were cleared by centrifugation at 17,000×g for 10 min at 4° C., and supernatants were run in an SDS-PAGE for Western blotting. After electrophoresis, nitrocellulose membranes (Bio-Rad) were used in wet transfer. Transferred membranes were first blocked for 1 hr in phosphate-buffered saline (PBS) containing 5% fat-free milk and 0.1% tween-20, and then incubated with the following primary antibodies: rabbit anti-Miro1 (HPA010687, Sigma-Aldrich) at 1:1,000, mouse anti-ATP50 (AB14730, Abcam) at 1:5,000, mouse anti-β-Actin (A00702, Genscript) at 1:3,000, or rabbit anti-VDAC (4661S, Cell Signaling Technology) at 1:1,000 at 4° C. overnight in blocking buffer. West Dura ECL reagents (GE Healthcare) were used for ECL immunoblotting with HRP-conjugated goat anti-mouse or anti-rabbit, anti-mouse IgG (Jackson ImmunoResearch Laboratories) at 1:5-10,000. Membranes were exposed to UltraCruz autoradiography films (Santa Cruz Biotechnology) and developed on a Konica Minolta SRX-101A developer.
T-type calcium channel antagonists that could reduce Miro1 level were tested in the above PD fibroblast assay.

Miro1 [2] = assay: Miro1 reduction after compound administration, Western blot; conditions: Western blot method
Cav3.2 = Cav3.2 (Homo sapiens (Human), UniProt O95180); assay: In vitro patch clamp assay (SyncroPatch 384PE); conditions: HEK293 cells
Experimental: Patch clamp assays were performed at Charles River. HEK293 cells were cultured in Dulbecco's Modified Eagle Medium/Nutrient Mixture F-12 (D-MEM/F-12) supplemented with 10% fetal bovine serum, 100 U/mL penicillin G sodium, 100 μg/mL streptomycin sulfate and 500 μg/mL G418. Before testing, cells in culture dishes were washed twice with Hank's Balanced Salt Solution, treated with Accutase™ and re-suspended in the culture media (˜20×10^6 cells in 20 mL). Cells in suspension were allowed to recover for 10 minutes in tissue culture incubator set at 37° C. in a humidified 95% air: 5% CO2 atmosphere. Immediately before use in the SyncroPatch 384PE system (SP384PE), the cells were washed twice in extracellular buffer (HB-PS) to remove the culture medium and re-suspended in 20 mL of HB-PS. Extracellular buffer was loaded into the wells of Nanion 384-well Patch Clamp (NPC-384, 4×M) chip (60 μL per well). Then, cell suspension was pipetted into the wells (20 μL per well) of the chip. After establishment of the whole-cell configuration, membrane currents were recorded using patch clamp amplifier in the SP384PE system.

Cav3.2, sequence (O95180 whole entry): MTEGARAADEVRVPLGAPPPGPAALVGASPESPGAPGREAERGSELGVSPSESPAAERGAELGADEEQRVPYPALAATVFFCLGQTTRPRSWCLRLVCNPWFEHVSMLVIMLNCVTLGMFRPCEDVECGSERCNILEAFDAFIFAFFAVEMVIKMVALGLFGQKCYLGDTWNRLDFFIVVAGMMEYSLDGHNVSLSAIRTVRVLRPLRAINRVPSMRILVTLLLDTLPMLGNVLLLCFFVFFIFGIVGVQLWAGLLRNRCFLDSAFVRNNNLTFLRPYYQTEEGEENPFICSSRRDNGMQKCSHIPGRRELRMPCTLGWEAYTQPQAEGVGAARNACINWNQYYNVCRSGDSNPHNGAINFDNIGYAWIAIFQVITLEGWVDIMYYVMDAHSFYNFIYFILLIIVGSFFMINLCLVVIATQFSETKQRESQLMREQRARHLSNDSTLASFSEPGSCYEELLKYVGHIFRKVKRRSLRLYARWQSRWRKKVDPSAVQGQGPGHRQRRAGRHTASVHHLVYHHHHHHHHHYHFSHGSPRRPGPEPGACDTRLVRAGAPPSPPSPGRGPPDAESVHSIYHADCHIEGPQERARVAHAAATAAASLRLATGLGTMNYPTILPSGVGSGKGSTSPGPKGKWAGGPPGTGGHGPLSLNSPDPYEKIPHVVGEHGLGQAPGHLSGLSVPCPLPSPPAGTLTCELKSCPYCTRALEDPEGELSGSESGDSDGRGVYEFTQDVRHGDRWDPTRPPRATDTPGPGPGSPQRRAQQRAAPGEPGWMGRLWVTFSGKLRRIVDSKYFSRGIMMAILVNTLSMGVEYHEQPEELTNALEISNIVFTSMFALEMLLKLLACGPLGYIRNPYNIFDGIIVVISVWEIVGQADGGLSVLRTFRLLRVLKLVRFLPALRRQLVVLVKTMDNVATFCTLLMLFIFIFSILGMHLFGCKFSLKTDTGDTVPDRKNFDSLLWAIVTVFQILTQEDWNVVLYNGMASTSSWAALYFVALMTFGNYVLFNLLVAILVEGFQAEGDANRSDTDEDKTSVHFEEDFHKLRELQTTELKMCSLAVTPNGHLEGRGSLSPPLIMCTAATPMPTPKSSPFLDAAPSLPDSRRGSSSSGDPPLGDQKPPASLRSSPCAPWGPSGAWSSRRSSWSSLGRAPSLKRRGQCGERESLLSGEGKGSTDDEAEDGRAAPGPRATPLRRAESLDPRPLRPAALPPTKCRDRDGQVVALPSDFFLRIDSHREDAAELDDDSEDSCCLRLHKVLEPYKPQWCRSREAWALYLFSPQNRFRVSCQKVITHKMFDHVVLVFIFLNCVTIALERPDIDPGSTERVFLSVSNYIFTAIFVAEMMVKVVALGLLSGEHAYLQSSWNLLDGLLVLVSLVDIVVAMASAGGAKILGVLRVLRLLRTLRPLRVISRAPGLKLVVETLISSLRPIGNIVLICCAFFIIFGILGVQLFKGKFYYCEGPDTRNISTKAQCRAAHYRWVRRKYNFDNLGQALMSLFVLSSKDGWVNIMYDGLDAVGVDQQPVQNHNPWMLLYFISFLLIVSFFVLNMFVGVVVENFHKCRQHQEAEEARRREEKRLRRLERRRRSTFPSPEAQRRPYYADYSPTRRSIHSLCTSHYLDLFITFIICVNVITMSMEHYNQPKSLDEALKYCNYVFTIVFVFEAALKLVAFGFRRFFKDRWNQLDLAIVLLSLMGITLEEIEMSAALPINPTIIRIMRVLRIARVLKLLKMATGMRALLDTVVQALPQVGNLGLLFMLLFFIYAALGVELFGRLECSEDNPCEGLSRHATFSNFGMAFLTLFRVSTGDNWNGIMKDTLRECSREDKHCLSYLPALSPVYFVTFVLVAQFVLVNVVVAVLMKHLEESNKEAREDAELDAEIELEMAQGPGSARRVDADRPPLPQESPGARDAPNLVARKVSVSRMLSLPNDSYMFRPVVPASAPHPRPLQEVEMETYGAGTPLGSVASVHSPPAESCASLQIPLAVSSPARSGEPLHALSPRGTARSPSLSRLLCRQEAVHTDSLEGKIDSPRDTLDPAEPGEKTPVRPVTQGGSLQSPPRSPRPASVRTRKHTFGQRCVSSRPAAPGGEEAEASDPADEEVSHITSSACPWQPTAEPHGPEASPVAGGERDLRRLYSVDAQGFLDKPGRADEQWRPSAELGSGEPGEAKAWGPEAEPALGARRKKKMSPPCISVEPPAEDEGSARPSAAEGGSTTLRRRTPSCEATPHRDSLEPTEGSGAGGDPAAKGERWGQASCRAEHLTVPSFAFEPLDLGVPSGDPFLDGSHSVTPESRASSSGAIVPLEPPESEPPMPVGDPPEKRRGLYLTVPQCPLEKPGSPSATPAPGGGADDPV

| SMILES | IC50 (Miro1 [1]) [nM] | Miro1 Lowering (Miro1 [2]) | IC50 (Cav3.2) [nM] |
| --- | --- | --- | --- |
| O=C(c1cc(S(=O)(=O)Nc2ccccc2F)c(F)cc1Cl)N1CCN2CCC[C@@H]2C1 [ABT-639, 5-[(8aR)-3,4,6,7,8,8a-hexahydro-1H-pyrrolo[1,2-a]pyrazine-2-carbonyl]-4-chloro-2-fluoro-N-(2-fluorophenyl)benzenesulfonamide] | 5410 | YES |  |
| N#Cc1ccc(Cn2ccc(NC(=O)Cc3ccc(C4(C(F)(F)F)CC4)cc3)n2)nc1 [ACT-709478, N-(1-((5-cyanopyridin-2-yl)methyl)-1H-pyrazol-3-yl)-2-(4-(1-(trifluoromethyl)cyclopropyl)phenyl)acetamide] | 3930 | YES |  |
| C[C@@H](NC(=O)Cc1cnc(C2CC2)c(Cl)c1)c1cc2cnn(CC(F)(F)F)c2cn1 [Example 36, (R)-2-(5-chloro-6-cyclopropylpyridin-3-yl)-N-(1-(1-(2,2,2-trifluoroethyl)-1H-pyrazolo[3,4-c]pyridin-5-yl)ethyl)acetamide] |  |  | 873 |
| C[C@@H](NC(=O)Cc1ccc(C(C)(F)F)c(Cl)c1)c1cc2cnn(CC(F)(F)F)c2cn1 [Example 37, (R)-2-(3-chloro-4-(1,1-difluoroethyl)phenyl)-N-(1-(1-(2,2,2-trifluoroethyl)-1H-pyrazolo[3,4-c]pyridin-5-yl)ethyl)acetamide] |  |  | 84 |
| C[C@@H](NC(=O)Cc1ccc(C(C)(F)F)c(F)c1)c1cc2cnn(CC(F)(F)F)c2cn1 [Example 38, (R)-2-(4-(1,1-difluoroethyl)-3-fluorophenyl)-N-(1-(1-(2,2,2-trifluoroethyl)-1H-pyrazolo[3,4-c]pyridin-5-yl)ethyl)acetamide] |  |  | 123 |
| C[C@@H](NC(=O)Cc1cnc(C2CC2)c(F)c1)c1cc2cnn(CC(F)(F)F)c2cn1 [Example 39, (R)-2-(6-cyclopropyl-5-fluoropyridin-3-yl)-N-(1-(1-(2,2,2-trifluoroethyl)-1H-pyrazolo[3,4-c]pyridin-5-yl)ethyl)acetamide] |  |  | 519 |
| C[C@@H](NC(=O)Cc1ccc(C(F)(F)F)cc1)c1cc2cnn(CC(C)(F)F)c2cn1 [Example 40, (R)—N-(1-(1-(2,2-difluoropropyl)-1H-pyrazolo[3,4-c]Pyridin-5-yl)ethyl)-2-(4-(trifluoromethyl)phenyl)acetamide] |  |  | 827 |
| C[C@@H](NC(=O)Cc1ccc(C(C)(F)F)cc1)c1cc2cnn(CC(C)(F)F)c2cn1 [Example 41, (R)-2-(4-(1,1-difluoroethyl)phenyl)-N-(1-(1-(2,2-difluoropropyl)-1H-pyrazolo[3,4-c]pyridin-5-yl)ethyl)acetamide] |  |  | 727 |
| C[C@@H](NC(=O)Cc1ccc(C(F)(F)F)c(F)c1)c1cc2cnn(CC(F)(F)F)c2cn1 [Example 42, (R)-2-(3-fluoro-4-(trifluoromethyl)phenyl)-N-(1-(1-(2,2,2-trifluoroethyl)-1H-pyrazolo[3,4-c]pyridin-5-yl)ethyl)acetamide] |  |  | 394 |
| C[C@@H](NC(=O)Cc1ccc(C(F)(F)F)c(Cl)c1)c1cc2cnn(CC(F)(F)F)c2cn1 [Example 43, (R)-2-(3-chloro-4-(trifluoromethyl)phenyl)-N-(1-(1-(2,2,2-trifluoroethyl)-1H-pyrazolo[3,4-c]pyridin-5-yl)ethyl)acetamide] |  |  | 214 |
| C[C@@H](NC(=O)Cc1ccc(C2(C(F)(F)F)CC2)cc1)c1cc2cnn(CC(F)(F)F)c2cn1 [Example 44, (R)—N-(1-(1-(2,2,2-trifluoroethyl)-1H-pyrazolo[3,4-c]pyridin-5-yl)ethyl)-2-(4-(1-(trifluoromethyl)cyclopropyl)phenyl)acetamide] |  |  | 71 |
| CC[C@@H](NC(=O)Cc1ccc(C(F)(F)F)cc1)c1cc2cnn(CC(F)(F)F)c2cn1 [Example 45, (R)—N-(1-(1-(2,2,2-trifluoroethyl)-1H-pyrazolo[3,4-c]pyridin-5-yl)propyl)-2-(4-(trifluoromethyl)phenyl)acetamide] |  |  | 113 |
| Cc1c2ccc(CC(=O)N[C@H](C)c3cc4cnn(CC(F)(F)F)c4cn3)cc2nn1C [Example 46, (R)-2-(2,3-dimethyl-2H-indazol-6-yl)-N-(1-(1-(2,2,2-trifluoroethyl)-1H-pyrazolo[3,4-c]pyridin-5-yl)ethyl)acetamide] |  |  | 806 |
| C[C@@H](NC(=O)Cc1ccc(C2(C#N)CC2)cc1)c1cc2cnn(CC(F)(F)F)c2cn1 [Example 47, (R)-2-(4-(1-cyanocyclopropyl)phenyl)-N-(1-(1-(2,2,2-trifluoroethyl)-1H-pyrazolo[3,4-c]pyridin-5-yl)ethyl)acetamide] |  |  | 220 |
| C[C@@H](NC(=O)Cc1ccc2c(c1)OC(F)(F)O2)c1cc2cnn(CC(F)(F)F)c2cn1 [Example 48, (R)-2-(2,2-difluorobenzo[d][1,3]dioxol-5-yl)-N-(1-(1-(2,2,2-trifluoroethyl)-1H-pyrazolo[3,4-c]pyridin-5-yl)ethyl)acetamide] |  |  | 260 |
| Cc1nn(C)c2ccc(CC(=O)N[C@H](C)c3cc4cnn(CC(F)(F)F)c4cn3)cc12 [Example 49, (R)-2-(1,3-dimethyl-1H-indazol-5-yl)-N-(1-(1-(2,2,2-trifluoroethyl)-1H-pyrazolo[3,4-c]pyridin-5-yl)ethyl)acetamide] |  |  | 352 |
| C[C@@H](NC(=O)Cc1ccc2c(c1)c(C#N)cn2C)c1cc2cnn(CC(F)(F)F)c2cn1 [Example 50, (R)-2-(3-cyano-1-methyl-1H-indol-5-yl)-N-(1-(1-(2,2,2-trifluoroethyl)-1H-pyrazolo[3,4-c]pyridin-5-yl)ethyl)acetamide] |  |  | 850 |
| C[C@@H](NC(=O)Cc1ccc(C(F)(F)F)cc1)c1cc2ccn(CC(F)(F)F)c2cn1 [Example 51, (R)—N-(1-(1-(2,2,2-trifluoroethyl)-1H-pyrrolo[2,3-c]pyridin-5-yl)ethyl)-2-(4-(trifluoromethyl)phenyl)acetamide] |  |  | 411 |
| C[C@@H](NC(=O)Cc1ccc(C(C)(F)F)c(C#N)c1)c1cc2cnn(CC(F)(F)F)c2cn1 [Example 52, (R)-2-(3-cyano-4-(1,1-difluoroethyl)phenyl)-N-(1-(1-(2,2,2-trifluoroethyl)-1H-pyrazolo[3,4-c]pyridin-5-yl)ethyl)acetamide] |  |  | 389 |
| Cc1nc2cc(CC(=O)N[C@H](C)c3cc4cnn(CC(F)(F)F)c4cn3)ccc2n1C [Example 53, (R)-2-(1,2-dimethyl-1H-benzo[d]imidazol-5-yl)-N-(1-(1-(2,2,2-trifluoroethyl)-1H-pyrazolo[3,4-c]pyridin-5-yl)ethyl)acetamide] |  |  | 919 |
| Cc1c(C#N)c2cc(CC(=O)N[C@H](C)c3cc4cnn(CC(F)(F)F)c4cn3)ccc2n1C [Example 54, (R)-2-(3-cyano-1,2-dimethyl-1H-indol-5-yl)-N-(1-(1-(2,2,2-trifluoroethyl)-1H-pyrazolo[3,4-c]pyridin-5-yl)ethyl)acetamide] |  |  | 529 |
| [2H][C@](C)(NC(=O)Cc1ccc(C(F)(F)F)cc1)c1cc2cnn(CC(F)(F)F)c2cn1 [Example 55, (R)—N-(1-(1-(2,2,2-trifluoroethyl)-1H-pyrazolo[3,4-c]pyridin-5-yl)ethyl-1-d)-2-(4-(trifluoromethyl)phenyl)acetamide] |  |  | 335 |
| CC(C)c1ccc(CC(=O)N[C@H](C)c2ccc(OCC(F)(F)F)cn2)cc1 [Example 56, 2-(4-isopropylphenyl)-N-[(1R)-1-(5-(2,2,2-trifluoroethoxy)pyridin-2-yl)ethyl]acetamide] |  |  | 37 |
| CC(C)c1ccc(CC(=O)N[C@H](C)c2cc3c(cn2)OC(F)(F)O3)cc1 [Example 57, (R)—N-(1-(2,2-difluoro-[1,3]dioxolo[4,5-c]pyridin-6-yl)ethyl)-2-(4-isopropylphenyl)acetamide] |  |  | 868 |
| C[C@@H](NC(=O)Cc1ccc(C2(C(F)(F)F)CC2)nc1)c1ncc(Cl)s1 [Example 58, (R)—N-(1-(5-chlorothiazol-2-yl)ethyl)-2-(6-(1-(trifluoromethyl)cyclopropyl)pyridin-3-yl)acetamide] |  |  | 4900 |
| C[C@@H](NC(=O)Cc1ccc(C2(C(F)(F)F)CC2)nc1)c1ccc(OCC(F)(F)F)cn1 [Example 59, (R)—N-(1-(5-(2,2,2-trifluoroethoxy)pyridin-2-yl)ethyl)-2-(6-(1-(trifluoromethyl)cyclopropyl)pyridin-3-yl)acetamide] |  |  | 97 |
| NS(=O)(=O)Cc1noc2ccccc12 [Zonisamide, 1,2-benzisoxazole-3-methanesulfonamide] |  | YES |  |

Source: patent publication US20240190865A1, “T-TYPE CALCIUM CHANNEL ANTAGONISTS AND USES THEREOF” (THE BOARD OF TRUSTEES OF THE LELAND STANFORD JUNIOR …, priority 2021, published 2024)
